Consider two compounds from US20070189965A1, “Copper-complex isonitrile positron emission tomography (pet) imaging agent and method” (priority 2004, published 2007).

A short description of series [1]: Stability of I-131 Hippuran vials on storage: percent remaining bound. Format: physicochemical. How it is done: As another example, I-131 Hippuran was prepared. The I-131 Hippuran was prepared as follows: 9 vials were prepared of I-131 Hippuran in solution with a radioactive concentration of MIBG of 1 mCi per vial. Each vial had 4 cc. The I-131 in seven of those vials was then stabilized and lyophilized according to the process described in this invention. One vial was frozen and maintained at a temperature of −10 degrees, and another vial was maintained room temperature. Room temperature was selected because Hippuran is thought to be stable at room temperature even in conjunction with a radioisotope. […]

A short description of series [2]: Stability of I-131 MIBG vials on storage: percent of iodine remaining bound. It is filed as physicochemical. How it is done: In order to establish the advantages of the novel process and resulting composition, a series of tests were run utilizing meta iodo benzyl guanidine (MIBG) in which the radionuclide I-131 was the iodine in the MlBG.
The MIBG was prepared as follows: eight vials were prepared of MIBG in solution with a radioactive concentration of MIBG of 1 mCi per vial. The MIBG in six of those vials were then stabilized and lyophilized according to the process described in this invention. One vial was frozen and maintained at a temperature of −10 degrees, and another vial was simply refrigerated at approximately 5 degrees.
Six vials were prepared according to the process in this invention in order to enable several to be reconstituted from the lyophilized state and their activity tallied.
The radioactive concentration of MIBG per vial was 1 mCi per vial.
One each of the vials was reconstituted after 24, 48, 72 and 168 hours respectively.

[3] abbreviates: Lyophilized and stabilized per invention, stored at room temp., 0 hours, 1 mCi per vial.

Consider `O=C(O)CNC(=O)c1ccccc1[131I]` [I-131 Hippuran], for which the “percent of Hippuran remaining bound to the 1-123” value in series [1] (Frozen −10°, 0 hours) is 98%; in series [1] (Frozen −10°, 24 hrs) it was 97.8%; in series [1] (Frozen −10°, 48 hrs), 97%; in series [1] (Frozen −10°, 72 hrs), 94%; in series [1] (Frozen −10°, 96 hrs), 92.5%; in series [1] (Frozen −10°, 120 hrs), 91. For the same compound, the “percent of Hippuran remaining bound to the 1-123” value in series [1] (setting [3]) turned out to be 98%; in series [1] (Lyophilized and stabilized per invention, stored at room temp., 24 hrs), 98.4%; in series [1] (Lyophilized and stabilized per invention, stored at room temp., 48 hrs), 98.6%; in series [1] (Lyophilized and stabilized per invention, stored at room temp., 72 hrs) it was 98%; in series [1] (Lyophilized and stabilized per invention, stored at room temp., 96 hrs) it was 98.4%; in series [1] (Lyophilized and stabilized per invention, stored at room temp., 120 hrs), 98.5%. Further, the “percent of Hippuran remaining bound to the 1-123” value in series [1] (Room Temp. (solution), 0 hours) came out at 98%; in series [1] (Room Temp. (solution), 24 hrs), 96%; in series [1] (Room Temp. (solution), 48 hrs) it was 95%; in series [1] (Room Temp. (solution), 72 hrs) it was 94.5%; in series [1] (Room Temp. (solution), 96 hrs), 92%; in series [1] (Room Temp. (solution), 120 hrs) it was 90%.
`N=C(N)NCc1cccc([131I])c1` [MIBG, meta iodo benzyl guanidine]: the “percent of iodine remaining bound to the MIBG” value was determined as 96.3% in series [2] (Frozen −10°, 0 hours); 94% in series [2] (Frozen −10°, 24 hours); 91% in series [2] (Frozen −10°, 48 hours); 84% in series [2] (Frozen −10°, 72 hours); 72% in series [2] (Frozen −10°, 168 hours (1 wk.)); 96.3% in series [2] (setting [3]). Moreover, the “percent of iodine remaining bound to the MIBG” value in series [2] (Lyophilized and stabilized per invention, stored at room temp., 24 hours) was determined as 97%; in series [2] (Lyophilized and stabilized per invention, stored at room temp., 48 hours), 96.6%; in series [2] (Lyophilized and stabilized per invention, stored at room temp., 72 hours), 96.2%; in series [2] (Lyophilized and stabilized per invention, stored at room temp., 168 hours (1 wk.)) it was 95.9%; in series [2] (Refrigerated ˜+5°, 0 hours) it was 96.3%; in series [2] (Refrigerated ˜+5°, 24 hours), 92%. The “percent of iodine remaining bound to the MIBG” value amounted to 85% in series [2] (Refrigerated ˜+5°, 48 hours); 77% in series [2] (Refrigerated ˜+5°, 72 hours); 55% in series [2] (Refrigerated ˜+5°, 168 hours (1 wk.)).
